Data taken from patent US9718790B2, “Triazine derivative and pharmaceutical composition having an analgesic activity comprising the same” (SHIONOGI & CO., LTD., priority 2010, dated 2017).

The molecules below were run against human P2X3 receptor (Homo sapiens (Human), UniProt P56373) (assay: Evaluation of human P2X3 receptor inhibitory activity (Fluo-3 calcium fluorescence, FDSS 3000, ATP stimulation)). Conditions: C6BU-1 cells stably expressing human P2X3 receptor.
Assay type: cell-based
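Also: stimulus was 50 nM ATP with fluorescence followed for 3 min, and the response per well was peak post-ATP fluorescence divided by the reading at measurement start.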

human P2X3 receptor, sequence (P56373 whole entry): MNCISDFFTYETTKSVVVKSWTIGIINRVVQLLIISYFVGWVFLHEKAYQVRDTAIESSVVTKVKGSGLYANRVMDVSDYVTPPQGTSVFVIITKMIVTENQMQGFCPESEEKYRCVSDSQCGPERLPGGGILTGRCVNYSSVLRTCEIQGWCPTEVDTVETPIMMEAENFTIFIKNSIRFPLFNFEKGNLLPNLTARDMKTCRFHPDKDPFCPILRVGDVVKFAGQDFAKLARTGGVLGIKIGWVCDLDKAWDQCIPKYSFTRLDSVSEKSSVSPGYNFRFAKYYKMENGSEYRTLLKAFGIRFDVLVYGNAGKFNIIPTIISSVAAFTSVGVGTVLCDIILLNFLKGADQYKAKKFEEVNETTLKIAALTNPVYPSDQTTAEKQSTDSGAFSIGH

Row | Structure (SMILES) | IC50
1 | Cc1ccc(Cn2c(=O)n(CCC(=O)O)c(=O)[nH]/c2=N\c2cccc(C(F)(F)F)c2C)cc1 [Compound I-2085] | 852 nM
2 | CCn1c(=O)[nH]/c(=N\c2ccc(Oc3ccc(CO)nc3)cc2)n(Cc2ccc(Cl)cc2)c1=O [Compound I-2114] | 7 nM
3 | Cc1ccc(Cn2c(=O)n(CCC(=O)O)c(=O)[nH]/c2=N\c2ccc(OC(C)C)c(C3CC3)c2)cc1 [Compound I-1303] | 66 nM
4 | C[C@@H](Oc1ccc(/N=c2\[nH]c(=O)n(CCC(=O)O)c(=O)n2Cc2ccc(Cl)cc2)cc1)C(F)(F)F [Compound I-1908] | 70 nM
5 | CC(C)Oc1ccc(/N=c2\[nH]c(=O)n(C[C@H](C)C(=O)O)c(=O)n2Cc2ccc(F)cc2)cc1Cl [Compound I-0630] | 30 nM
6 | COC(=O)[C@@H](C)Cn1c(=O)[nH]/c(=N\c2ccc(OC(C)C)c(C)c2)n(Cc2ccc(F)cc2)c1=O [Compound I-0625] | 66 nM
7 | Cc1ccc(Cn2c(=O)n(C[C@H](C)C(=O)O)c(=O)[nH]/c2=N\c2cnc(OC3CCCC3)c(Cl)c2)cc1 [Compound I-1477] | 68 nM
8 | CC(C)Oc1ccc(/N=c2\[nH]c(OCC(=O)NC(CO)CO)nc(=O)n2Cc2ccc(Cl)cc2)cc1F [Compound I-0584] | 248 nM
9 | CC(C)Oc1ccc(/N=c2\[nH]c(=O)n(C[C@@H]3COC(C)(C)O3)c(=O)n2Cc2ccc(Cl)cc2)cc1Cl [Compound I-0614] | 10 nM
10 | Cc1ccc(Cn2c(=O)n(C[C@H](C)C(=O)O)c(=O)[nH]/c2=N\c2ccc(CCC3CC3)cc2)cc1 [Compound I-1214] | 70 nM
11 | COC(=O)[C@@H](C)Cn1c(=O)[nH]/c(=N\c2ccc(C(=O)C3CC3)cc2)n(Cc2ccc(C)cc2)c1=O [Compound I-1302] | 169 nM
12 | C[C@H](CO)Cn1c(=O)[nH]/c(=N\c2ccc3oc(CO)cc3c2)n(Cc2ccc(Cl)cc2)c1=O [Compound I-1970] | 82 nM
13 | Cc1nc2ccc(/N=c3\[nH]c(=O)n(CCO)c(=O)n3CC3CCC(C)CC3)cc2s1 (centres unmarked) [Compound I-2098] | 4 nM
14 | O=C(Cn1c(=O)[nH]/c(=N\c2ccc(Oc3ccnc(O)c3)cc2)n(Cc2ccc(Cl)cc2)c1=O)NCCO [Compound I-1979] | 4 nM
15 | Cc1ccc(Cn2c(=O)n(CCC(=O)O)c(=O)[nH]/c2=N\c2ccc(OC(C)C)c(CO)c2)cc1 [Compound I-1429] | 232 nM
16 | CO/N=C(\Cn1c(=O)[nH]/c(=N\c2ccc(OC(C)C)c(C)c2)n(Cc2ccc(Cl)cc2)c1=O)C(=O)O [Compound I-0756] | 131 nM
17 | Cc1ccc(Cn2c(=O)n(C[C@H](C)C(=O)O)c(=O)[nH]/c2=N\c2ccc3nc(C)oc3c2)cc1 [Compound I-1279] | 158 nM
18 | CCn1c(=O)[nH]/c(=N\c2ccc(Oc3ccc(C(=O)OC)cc3)cc2)n(Cc2ccc(C)cc2)c1=O [Compound I-2029] | 4 nM
19 | CCOC(=O)CCCn1c(=O)[nH]/c(=N\c2ccc(Oc3ccc(C)nc3)cc2)n(Cc2ccc(C)cc2)c1=O [Compound I-1369] | 3 nM
20 | COC(=O)[C@@H](C)Cn1c(=O)[nH]/c(=N\c2ccc(Oc3cc(C)nc(C)c3)cc2)n(Cc2ccc(C)cc2)c1=O [Compound I-1240] | 18 nM
21 | Cc1ccc(Cn2c(=O)n(C[C@H](C)C(=O)O)c(=O)[nH]/c2=N\c2ccc(OC3CCCC3)cc2)cc1 [Compound I-1189] | 33 nM
22 | CCOc1cc(F)c(/N=c2\[nH]c(=O)n(CCC(=O)O)c(=O)n2Cc2ccc(C)cc2)c(F)c1 [Compound I-2053] | 952 nM
23 | CCn1c(=O)[nH]/c(=N\c2ccc(Oc3ccnc(OC)n3)cc2)n(Cc2ccc(Cl)cc2)c1=O [Compound I-2008] | 7 nM
24 | CCn1c(=O)[nH]/c(=N\c2ccc(Oc3ccc([N+](=O)[O-])nc3)cc2)n(Cc2ccc(Cl)cc2)c1=O [Compound I-2172] | 1 nM
25 | CCOC(=O)c1cnc(Oc2ccc(/N=c3\[nH]c(=O)n(CC)c(=O)n3Cc3ccc(Cl)cc3)cc2)s1 [Compound I-2148] | 2 nM
26 | CC(C)Oc1ccc(/N=c2\[nH]c(=O)n(CC(=O)OCC3CCOCC3)c(=O)n2Cc2ccc(Cl)cc2)cc1Cl [Compound I-0667] | 20 nM

Same assay, conditions: C6BU-1 cells stably expressing human P2X3 receptor, Fluo-3 fluorescence, FDSS 3000

Row | Structure (SMILES) | IC50
27 | CC(C)n1c2c(c3cc(/N=c4\[nH]c(=O)n([C@@H](C)[C@@H](C)C(=O)O)c(=O)n4Cc4ccc(Cl)cc4)ccc31)CCCC2 [Compound I-1770] | 788 nM
28 | CC(C)Oc1ccc(/N=c2\[nH]c(=O)n(CC3(CO)COC3)c(=O)n2Cc2ccc(Cl)cc2)cc1Cl [Compound I-1010] | 4 nM
29 | Cc1ccc(Cn2c(=O)n(C[C@H](C)C(=O)O)c(=O)[nH]/c2=N\c2ccc(OCC3CC3)c(Cl)c2)cc1 [Compound I-0971] | 30 nM
30 | Cc1ccc(Cn2c(=O)n(C[C@H](C)C(=O)O)c(=O)[nH]/c2=N\c2ccc(OC(F)(F)F)cc2)cc1 [Compound I-1002] | 298 nM
31 | Cc1nc2ccc(/N=c3\[nH]c(=O)n(CCC(CO)CO)c(=O)n3Cc3ccc(Cl)cc3)cc2s1 [Compound I-1853] | 4 nM
32 | COC(=O)Cn1c(=O)[nH]/c(=N\c2ccc(Oc3ccnc(O)c3)cc2)n(Cc2ccc(Cl)cc2)c1=O [Compound I-1903] | 4 nM
33 | C/C=C/c1ccc(Cn2c(=O)n(C[C@H](C)C(=O)O)c(=O)[nH]/c2=N\c2ccc(OC(C)C)cc2)cc1 [Compound I-1160] | 973 nM
34 | CCCOc1ccc(/N=c2\[nH]c(=O)n([C@@H](C)[C@@H](C)C(=O)O)c(=O)n2Cc2ccc(C)cc2)cc1 [Compound I-0929] | 45 nM
35 | NC(=O)c1cc(Oc2ccc(/N=c3\[nH]c(=O)[nH]c(=O)n3Cc3ccc(Cl)cc3)cc2)ccn1 [Compound I-1896] | 14 nM
36 | CCc1nc2ccc(/N=c3\[nH]c(=O)n(CC(=O)NC)c(=O)n3Cc3ccc(Cl)cc3)cc2s1 [Compound I-1807] | 6 nM
37 | Cc1nc2ccc(/N=c3\[nH]c(=O)n(CC(=O)O)c(=O)n3Cc3ccc(Cl)cc3)cc2s1 [Compound I-1610] | 251 nM
38 | COC(=O)[C@@H](C)Cn1c(=O)[nH]/c(=N\c2ccc(OC3CCCCC3)nc2)n(Cc2ccc(C)cc2)c1=O [Compound I-1184] | 138 nM
39 | CCc1oc2ccc(/N=c3\[nH]c(=O)n(CC(C)(C)C(=O)OC)c(=O)n3Cc3ccc(C)cc3)cc2c1C [Compound I-1575] | 9 nM
40 | CCOc1ccc(/N=c2\[nH]c(=O)n([C@@H](C)[C@@H](C)C(=O)O)c(=O)n2Cc2ccc(C)cc2)cc1Cl [Compound I-0973] | 19 nM
41 | Cc1cc(/N=c2\[nH]c(=O)n(CC3CCN(CC(=O)O)CC3)c(=O)n2Cc2ccc(Cl)cc2)ccc1OC(C)C [Compound I-1648] | 160 nM

Same assay, conditions: human P2X3 receptor, Test Example 1

Row | Structure (SMILES) | IC50
42 | N#CNC(=O)Cn1c(=O)[nH]/c(=N\c2ccc(Oc3ccon3)cc2)n(Cc2ccc(Cl)cc2)c1=O [Compound I-2604] | 21 nM
43 | CCn1c(=O)[nH]/c(=N\c2cccc(Oc3nccs3)c2)n(Cc2ccc(Cl)cc2)c1=O [Compound I-2637] | 177 nM
44 | CCOc1ccc(/N=c2\[nH]c(=O)n([C@H](C)CC(=O)OC)c(=O)n2Cc2ccc(C)cc2)cc1Cl [Compound I-0876] | 23 nM
45 | O=C(O)Cn1c(=O)[nH]/c(=N\c2ccc(Oc3ccnnc3)cc2)n(Cc2ccc(Cl)cc2)c1=O [Compound I-2665] | 85 nM
46 | CCc1cc2cc(/N=c3\[nH]c(=O)n(CCCOC4CCCCO4)c(=O)n3Cc3ccc(Cl)cc3)ccc2o1 (centres unmarked) [Compound I-2335] | 6 nM
47 | Cc1nsc(Oc2ccc(/N=c3\[nH]c(=O)n(C[C@H](O)CO)c(=O)n3Cc3ccc(F)cc3)cc2F)n1 [Compound I-2707] | 7 nM
48 | CCn1c(=O)[nH]/c(=N\c2ccc(Oc3ccc(C#N)cc3)nc2)n(Cc2ccc(Cl)cc2)c1=O [Compound I-2613] | 137 nM
49 | Cc1ccc(Cn2c(=O)n(C[C@H](C)C(=O)O)c(=O)[nH]/c2=N\c2ccc(C(C)C)c(Cl)c2)cc1 [Compound I-1494] | 571 nM
50 | CCn1c(=O)[nH]/c(=N\c2ccc(Oc3nccc(C(N)=O)n3)cc2)n(Cc2ccc(Cl)cc2)c1=O [Compound I-2311] | 8 nM
51 | COC(=O)c1cccc(Oc2ccc(/N=c3\[nH]c(=O)n(C)c(=O)n3Cc3ccc(C)cc3)cc2)n1 [Compound I-2266] | 44 nM
52 | CCn1c(=O)[nH]/c(=N\c2ccc(Oc3ccsn3)cc2)n(C[C@H]2CC[C@H](C)CC2)c1=O [Compound I-2350] | 2 nM
53 | CCn1c(=O)[nH]/c(=N\c2ccc(Oc3ccsn3)cc2)n(Cc2ccc(Cl)cc2)c1=O [Compound I-2286] | 5 nM
54 | Cc1ccc(Cn2c(=O)n(C[C@H](C)C(=O)O)c(=O)[nH]/c2=N\c2ccc(C3CC3)c(Cl)c2)cc1 [Compound I-1489] | 254 nM
55 | CCn1c(=O)[nH]/c(=N\c2ccc(Oc3cccc(C(=O)O)n3)c(F)c2)n(Cc2ccc(Cl)cc2)c1=O [Compound I-2498] | 3 nM
56 | Cn1c(=O)[nH]/c(=N\c2ccc(Oc3ncc(C(=O)O)s3)cc2)n(Cc2ccc(Cl)cc2)c1=O [Compound I-2409] | 14 nM
57 | CC(C)Oc1ccc(/N=c2\ncn(C(C)C)c(=O)n2Cc2ccc(Cl)cc2)cc1 [Compound I-2276, (E)-3-(4-chlorobenzyl)-4-(4-isopropoxyphenylimino)-1-isopropyl-3,4-dihydro-1,3,5-triazine-2(1H)-one] | 778 nM
58 | O=c1[nH]/c(=N\c2ccc(Oc3cnsn3)cc2)n(Cc2ccc(Cl)cc2)c(=O)n1CCO [Compound I-2477] | 15 nM
59 | CCn1c(=O)[nH]/c(=N\c2ccc(Oc3ccn[nH]3)cc2)n(Cc2ccc(Cl)cc2)c1=O [Compound I-2455] | 63 nM
60 | CCOC(=O)CCn1c(=O)[nH]/c(=N\c2ccc3nc(CC)sc3c2)n(Cc2ccc(C)cc2)c1=O [Compound I-1506] | 2 nM
61 | CCc1oc2ccc(/N=c3\[nH]c(=O)n(CC4(C(=O)O)CC4)c(=O)n3Cc3ccc(Cl)cc3)cc2c1C [Compound I-1551] | 9 nM
62 | Cc1ccc(Cn2c(=O)n(C)c(=O)[nH]/c2=N\c2ccc(Oc3cc(C(N)=O)ccn3)cc2)cc1 [Compound I-2342] | 16 nM
63 | C[C@H](CO)n1c(=O)[nH]/c(=N\c2ccc(Oc3ccon3)cc2)n(Cc2ccc(Cl)cc2)c1=O [Compound I-2488] | 37 nM
64 | Cc1ccc(Cn2c(=O)n(C[C@H](C)C(=O)O)c(=O)[nH]/c2=N\c2ccc(OCC(F)F)cc2)cc1 [Compound I-0849] | 78 nM
65 | NC(=O)CCn1c(=O)[nH]/c(=N\c2ccc(Oc3ccon3)cc2)n(Cc2ccc(Cl)cc2)c1=O [Compound I-2443] | 24 nM
